A word on the viability, T/C: it is the ratio of treated to control.

The source of these data is PubChem BioAssay AID1963837 (Molecular Pharmacology Branch, DTP, NCI, 2024).
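Also: spheroids exposed to drugs for seven days before readout.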

The first assay deals with 843126-344-R-J1-PDC complex spheroid viability. The assay can be described thus: Anticancer human tumor 843126-344-R-J1-PDC patient-derived melanoma cell line growth inhibition [POLQ]. The note with it: second compound 0.0316 µM; first compound 3.16 µM; active compounds read low. The method, boiled down: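 PDC + HUVEC + MSC complex spheroids; POLQ inhibitors ± partner drugs; top conc. at/near clinical Cmax, else 10 microM (SN-38 1 microM), half-log dilutions; 37 degrees C, 5% CO2.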
For `O=C(Nc1ccc(O)c(NS(=O)(=O)c2ccc(F)cc2)c1)c1ccc(-c2ccccc2)cc1` + Cc1cccc(N(C)C(=O)C2C(O)CCN2c2nc(C)cc(C(F)(F)F)c2C#N)c1, the viability, T/C was 99.6%.
Same read-out and setting: the same measure for `COc1cccc2c1C(=O)c1c(O)c3c(c(O)c1C2=O)CC(O)(C(=O)CO)CC3OC1CC(N)C(O)C(C)O1` (configuration not stated) + Nc1ccc(C#CCN(C(=O)Cc2ncc(C(F)(F)F)cc2C(F)(F)F)c2ccc(F)cc2)nn1: 3.95%.

The same assay, now with this note: second compound 0.0316 µM; first compound 10 µM; active compounds read low.
As for `C#Cc1c(F)ccc2cc(O)cc(-c3ncc4c(N5CC6CCC(C5)N6)nc(OCC56CCCN5CC(F)C6)nc4c3F)c12` (configuration not stated) + Cc1cccc(N(C)C(=O)C2C(O)CCN2c2nc(C)cc(C(F)(F)F)c2C#N)c1, the viability, T/C was 74%.
On the same count and under the same terms, the same measure for `CC1COCCN1c1cc(C2(O)CC3CCC(C2)O3)c2cnn(-c3ccn[nH]3)c2n1` (configuration not stated) + Cc1cccc(N(C)C(=O)C2C(O)CCN2c2nc(C)cc(C(F)(F)F)c2C#N)c1: 20.7%; for `O=C(Nc1ccc(O)c(NS(=O)(=O)c2ccc(F)cc2)c1)c1ccc(-c2ccccc2)cc1` + Cc1cccc(N(C)C(=O)C2C(O)CCN2c2nc(C)cc(C(F)(F)F)c2C#N)c1: 70.8%; for `COc1cccc2c1C(=O)c1c(O)c3c(c(O)c1C2=O)CC(O)(C(=O)CO)CC3OC1CC(N)C(O)C(C)O1` (configuration not stated) + Nc1ccc(C#CCN(C(=O)Cc2ncc(C(F)(F)F)cc2C(F)(F)F)c2ccc(F)cc2)nn1: 2.82%.

The assay is the same for the next values; noted with them: second compound 0.1 µM; first compound 0.0316 µM; active compounds read low.
Regarding `C#Cc1c(F)ccc2cc(O)cc(-c3ncc4c(N5CC6CCC(C5)N6)nc(OCC56CCCN5CC(F)C6)nc4c3F)c12` (configuration not stated) + Cc1cccc(N(C)C(=O)C2C(O)CCN2c2nc(C)cc(C(F)(F)F)c2C#N)c1, the viability, T/C is 103%.
Consider `CC1COCCN1c1cc(C2(O)CC3CCC(C2)O3)c2cnn(-c3ccn[nH]3)c2n1` (configuration not stated) + Cc1cccc(N(C)C(=O)C2C(O)CCN2c2nc(C)cc(C(F)(F)F)c2C#N)c1, for which the viability, T/C is 84.6%.
`O=C(Nc1ccc(O)c(NS(=O)(=O)c2ccc(F)cc2)c1)c1ccc(-c2ccccc2)cc1` + Cc1cccc(N(C)C(=O)C2C(O)CCN2c2nc(C)cc(C(F)(F)F)c2C#N)c1: the viability, T/C was 98.2%.
`COc1cccc2c1C(=O)c1c(O)c3c(c(O)c1C2=O)CC(O)(C(=O)CO)CC3OC1CC(N)C(O)C(C)O1` (configuration not stated) + Nc1ccc(C#CCN(C(=O)Cc2ncc(C(F)(F)F)cc2C(F)(F)F)c2ccc(F)cc2)nn1: the viability, T/C was 94.7%.

Staying with this assay, now noted: second compound 0.1 µM; first compound 0.1 µM; active compounds read low.
With `C#Cc1c(F)ccc2cc(O)cc(-c3ncc4c(N5CC6CCC(C5)N6)nc(OCC56CCCN5CC(F)C6)nc4c3F)c12` (configuration not stated) + Cc1cccc(N(C)C(=O)C2C(O)CCN2c2nc(C)cc(C(F)(F)F)c2C#N)c1, the viability, T/C was 98.6%.
As for `CC1COCCN1c1cc(C2(O)CC3CCC(C2)O3)c2cnn(-c3ccn[nH]3)c2n1` (configuration not stated) + Cc1cccc(N(C)C(=O)C2C(O)CCN2c2nc(C)cc(C(F)(F)F)c2C#N)c1, the viability, T/C is 66%.
For `O=C(Nc1ccc(O)c(NS(=O)(=O)c2ccc(F)cc2)c1)c1ccc(-c2ccccc2)cc1` + Cc1cccc(N(C)C(=O)C2C(O)CCN2c2nc(C)cc(C(F)(F)F)c2C#N)c1, the viability, T/C was 94.5%.
As for `COc1cccc2c1C(=O)c1c(O)c3c(c(O)c1C2=O)CC(O)(C(=O)CO)CC3OC1CC(N)C(O)C(C)O1` (configuration not stated) + Nc1ccc(C#CCN(C(=O)Cc2ncc(C(F)(F)F)cc2C(F)(F)F)c2ccc(F)cc2)nn1, the viability, T/C is 84.4%.

Staying with this assay, now noted: second compound 0.1 µM; first compound 0.316 µM; active compounds read low.
As to `C#Cc1c(F)ccc2cc(O)cc(-c3ncc4c(N5CC6CCC(C5)N6)nc(OCC56CCCN5CC(F)C6)nc4c3F)c12` (configuration not stated) + Cc1cccc(N(C)C(=O)C2C(O)CCN2c2nc(C)cc(C(F)(F)F)c2C#N)c1, the viability, T/C is 92.9%.
`CC1COCCN1c1cc(C2(O)CC3CCC(C2)O3)c2cnn(-c3ccn[nH]3)c2n1` (configuration not stated) + Cc1cccc(N(C)C(=O)C2C(O)CCN2c2nc(C)cc(C(F)(F)F)c2C#N)c1: the viability, T/C is 58.5%.
`O=C(Nc1ccc(O)c(NS(=O)(=O)c2ccc(F)cc2)c1)c1ccc(-c2ccccc2)cc1` + Cc1cccc(N(C)C(=O)C2C(O)CCN2c2nc(C)cc(C(F)(F)F)c2C#N)c1: the viability, T/C was 84.1%.
The same measure, in the same setting: the same measure for `COc1cccc2c1C(=O)c1c(O)c3c(c(O)c1C2=O)CC(O)(C(=O)CO)CC3OC1CC(N)C(O)C(C)O1` (configuration not stated) + Nc1ccc(C#CCN(C(=O)Cc2ncc(C(F)(F)F)cc2C(F)(F)F)c2ccc(F)cc2)nn1: 61.3%.

Staying with this assay, now noted: second compound 0.1 µM; first compound 1 µM; active compounds read low.
For `C#Cc1c(F)ccc2cc(O)cc(-c3ncc4c(N5CC6CCC(C5)N6)nc(OCC56CCCN5CC(F)C6)nc4c3F)c12` (configuration not stated) + Cc1cccc(N(C)C(=O)C2C(O)CCN2c2nc(C)cc(C(F)(F)F)c2C#N)c1, the viability, T/C was 76%.
Turning to `CC1COCCN1c1cc(C2(O)CC3CCC(C2)O3)c2cnn(-c3ccn[nH]3)c2n1` (configuration not stated) + Cc1cccc(N(C)C(=O)C2C(O)CCN2c2nc(C)cc(C(F)(F)F)c2C#N)c1, the viability, T/C was 40.1%.
The same measure, in the same setting: the figure for `O=C(Nc1ccc(O)c(NS(=O)(=O)c2ccc(F)cc2)c1)c1ccc(-c2ccccc2)cc1` + Cc1cccc(N(C)C(=O)C2C(O)CCN2c2nc(C)cc(C(F)(F)F)c2C#N)c1 is 83.6%; for `COc1cccc2c1C(=O)c1c(O)c3c(c(O)c1C2=O)CC(O)(C(=O)CO)CC3OC1CC(N)C(O)C(C)O1` (configuration not stated) + Nc1ccc(C#CCN(C(=O)Cc2ncc(C(F)(F)F)cc2C(F)(F)F)c2ccc(F)cc2)nn1 it is 15.7%.

Staying with this assay, now noted: second compound 0.1 µM; first compound 3.16 µM; active compounds read low.
As for `C#Cc1c(F)ccc2cc(O)cc(-c3ncc4c(N5CC6CCC(C5)N6)nc(OCC56CCCN5CC(F)C6)nc4c3F)c12` (configuration not stated) + Cc1cccc(N(C)C(=O)C2C(O)CCN2c2nc(C)cc(C(F)(F)F)c2C#N)c1, the viability, T/C was 118%.
On the same count and under the same terms, the figure for `CC1COCCN1c1cc(C2(O)CC3CCC(C2)O3)c2cnn(-c3ccn[nH]3)c2n1` (configuration not stated) + Cc1cccc(N(C)C(=O)C2C(O)CCN2c2nc(C)cc(C(F)(F)F)c2C#N)c1 is 28.5%; for `O=C(Nc1ccc(O)c(NS(=O)(=O)c2ccc(F)cc2)c1)c1ccc(-c2ccccc2)cc1` + Cc1cccc(N(C)C(=O)C2C(O)CCN2c2nc(C)cc(C(F)(F)F)c2C#N)c1 it is 96.5%; for `COc1cccc2c1C(=O)c1c(O)c3c(c(O)c1C2=O)CC(O)(C(=O)CO)CC3OC1CC(N)C(O)C(C)O1` (configuration not stated) + Nc1ccc(C#CCN(C(=O)Cc2ncc(C(F)(F)F)cc2C(F)(F)F)c2ccc(F)cc2)nn1 it is 3.48%.

The assay is the same for the next values; noted with them: second compound 0.1 µM; first compound 10 µM; active compounds read low.
As for `C#Cc1c(F)ccc2cc(O)cc(-c3ncc4c(N5CC6CCC(C5)N6)nc(OCC56CCCN5CC(F)C6)nc4c3F)c12` (configuration not stated) + Cc1cccc(N(C)C(=O)C2C(O)CCN2c2nc(C)cc(C(F)(F)F)c2C#N)c1, the viability, T/C is 79.6%.
On the same count and under the same terms, the same measure for `CC1COCCN1c1cc(C2(O)CC3CCC(C2)O3)c2cnn(-c3ccn[nH]3)c2n1` (configuration not stated) + Cc1cccc(N(C)C(=O)C2C(O)CCN2c2nc(C)cc(C(F)(F)F)c2C#N)c1: 22.2%.
`O=C(Nc1ccc(O)c(NS(=O)(=O)c2ccc(F)cc2)c1)c1ccc(-c2ccccc2)cc1` + Cc1cccc(N(C)C(=O)C2C(O)CCN2c2nc(C)cc(C(F)(F)F)c2C#N)c1: the viability, T/C is 75%.
The same measure, in the same setting: the figure for `COc1cccc2c1C(=O)c1c(O)c3c(c(O)c1C2=O)CC(O)(C(=O)CO)CC3OC1CC(N)C(O)C(C)O1` (configuration not stated) + Nc1ccc(C#CCN(C(=O)Cc2ncc(C(F)(F)F)cc2C(F)(F)F)c2ccc(F)cc2)nn1 is 2.63%.

The same assay, now with this note: second compound 0.316 µM; first compound 0.0316 µM; active compounds read low.
Regarding `C#Cc1c(F)ccc2cc(O)cc(-c3ncc4c(N5CC6CCC(C5)N6)nc(OCC56CCCN5CC(F)C6)nc4c3F)c12` (configuration not stated) + Cc1cccc(N(C)C(=O)C2C(O)CCN2c2nc(C)cc(C(F)(F)F)c2C#N)c1, the viability, T/C is 96.1%.
For `CC1COCCN1c1cc(C2(O)CC3CCC(C2)O3)c2cnn(-c3ccn[nH]3)c2n1` (configuration not stated) + Cc1cccc(N(C)C(=O)C2C(O)CCN2c2nc(C)cc(C(F)(F)F)c2C#N)c1, the viability, T/C was 85.6%.
Still for that read-out and setting: the same measure for `O=C(Nc1ccc(O)c(NS(=O)(=O)c2ccc(F)cc2)c1)c1ccc(-c2ccccc2)cc1` + Cc1cccc(N(C)C(=O)C2C(O)CCN2c2nc(C)cc(C(F)(F)F)c2C#N)c1: 86.4%; for `COc1cccc2c1C(=O)c1c(O)c3c(c(O)c1C2=O)CC(O)(C(=O)CO)CC3OC1CC(N)C(O)C(C)O1` (configuration not stated) + Nc1ccc(C#CCN(C(=O)Cc2ncc(C(F)(F)F)cc2C(F)(F)F)c2ccc(F)cc2)nn1: 77.9%.

Staying with this assay, now noted: second compound 0.316 µM; first compound 0.1 µM; active compounds read low.
In the case of `C#Cc1c(F)ccc2cc(O)cc(-c3ncc4c(N5CC6CCC(C5)N6)nc(OCC56CCCN5CC(F)C6)nc4c3F)c12` (configuration not stated) + Cc1cccc(N(C)C(=O)C2C(O)CCN2c2nc(C)cc(C(F)(F)F)c2C#N)c1, the viability, T/C was 105%.
The same measure, in the same setting: the figure for `CC1COCCN1c1cc(C2(O)CC3CCC(C2)O3)c2cnn(-c3ccn[nH]3)c2n1` (configuration not stated) + Cc1cccc(N(C)C(=O)C2C(O)CCN2c2nc(C)cc(C(F)(F)F)c2C#N)c1 is 74.9%; for `O=C(Nc1ccc(O)c(NS(=O)(=O)c2ccc(F)cc2)c1)c1ccc(-c2ccccc2)cc1` + Cc1cccc(N(C)C(=O)C2C(O)CCN2c2nc(C)cc(C(F)(F)F)c2C#N)c1 it is 88.2%.
As to `COc1cccc2c1C(=O)c1c(O)c3c(c(O)c1C2=O)CC(O)(C(=O)CO)CC3OC1CC(N)C(O)C(C)O1` (configuration not stated) + Nc1ccc(C#CCN(C(=O)Cc2ncc(C(F)(F)F)cc2C(F)(F)F)c2ccc(F)cc2)nn1, the viability, T/C is 94.6%.

Staying with this assay, now noted: second compound 0.316 µM; first compound 0.316 µM; active compounds read low.
For the molecule `C#Cc1c(F)ccc2cc(O)cc(-c3ncc4c(N5CC6CCC(C5)N6)nc(OCC56CCCN5CC(F)C6)nc4c3F)c12` (configuration not stated) + Cc1cccc(N(C)C(=O)C2C(O)CCN2c2nc(C)cc(C(F)(F)F)c2C#N)c1, the viability, T/C is 91.2%.
`CC1COCCN1c1cc(C2(O)CC3CCC(C2)O3)c2cnn(-c3ccn[nH]3)c2n1` (configuration not stated) + Cc1cccc(N(C)C(=O)C2C(O)CCN2c2nc(C)cc(C(F)(F)F)c2C#N)c1: the viability, T/C was 51.3%.
On the same count and under the same terms, the figure for `O=C(Nc1ccc(O)c(NS(=O)(=O)c2ccc(F)cc2)c1)c1ccc(-c2ccccc2)cc1` + Cc1cccc(N(C)C(=O)C2C(O)CCN2c2nc(C)cc(C(F)(F)F)c2C#N)c1 is 103%; for `COc1cccc2c1C(=O)c1c(O)c3c(c(O)c1C2=O)CC(O)(C(=O)CO)CC3OC1CC(N)C(O)C(C)O1` (configuration not stated) + Nc1ccc(C#CCN(C(=O)Cc2ncc(C(F)(F)F)cc2C(F)(F)F)c2ccc(F)cc2)nn1 it is 47.5%.
